From patent US5500410A, “Substituted alkylamide derivatives of teicoplanin” (Gruppo Lepetit S.p.A., priority 1989, dated 1996)

Experiments:
[1] = system: Escherichia coli SKF 12140; experiment: In vitro MIC, two-fold dilution in microtiter; assay type: cell-based; details: 18-24 h at 37° C., inoculum about 10^4 CFU/ml
Protocol: (§1) Broth cultures are diluted enough so that the final inecuium is about 10^4 colony forming units/ml (CFU/ml).

[2] = system: Proteus vulgaris X19H ATCC 881; experiment: In vitro MIC, two-fold dilution in microtiter; assay type: cell-based; details: 18-24 h at 37° C., inoculum about 10^4 CFU/ml
Protocol: as §1

[3] = system: Pseudomonas aeruginosa ATCC 10145; experiment: In vitro MIC, two-fold dilution in microtiter; assay type: cell-based; details: 18-24 h at 37° C., inoculum about 10^4 CFU/ml
Protocol: as §1

[4] = system: Staphylococcus aureus TOUR; experiment: In vitro MIC, two-fold dilution in microtiter; assay type: cell-based; details: 18-24 h at 37° C., inoculum about 10^4 CFU/ml
Protocol: as §1

[5] = system: Staphylococcus epidermidis ATCC 12228; experiment: In vitro MIC, two-fold dilution in microtiter; assay type: cell-based; details: 18-24 h at 37° C., inoculum about 10^4 CFU/ml
Protocol: as §1

[6] = system: Staphylococcus haemolyticus L 602; experiment: In vitro MIC, two-fold dilution in microtiter; assay type: cell-based; details: 18-24 h at 37° C., inoculum about 10^4 CFU/ml
Protocol: as §1

[7] = system: Streptococcus faecalis ATCC 7080; experiment: In vitro MIC, two-fold dilution in microtiter; assay type: cell-based; details: 18-24 h at 37° C., inoculum about 10^4 CFU/ml
Protocol: as §1

[8] = system: Streptococcus pneumoniae UC 41; experiment: In vitro MIC, two-fold dilution in microtiter; assay type: cell-based; details: 18-24 h at 37° C., inoculum about 10^4 CFU/ml
Protocol: as §1

[9] = system: Streptococcus pyogenes C 203; experiment: In vitro MIC, two-fold dilution in microtiter; assay type: cell-based; details: 18-24 h at 37° C., inoculum about 10^4 CFU/ml
Protocol: as §1

E. coli = experiment: Mice septicemically infected with E. coli; assay type: in vivo; details: E. coli septicemia
[10] = system: Pseudomonas aeruginosa Strain No. L 1138; experiment: MIC against multi-resistant clinical isolates of Pseudomonas aeruginosa; assay type: cell-based; details: multi-resistant clinical isolate
Protocol: as §1
(§2) The activity against some multi-resistant clinical isolates of Pseudomonas aeruginosa of compounds 22, 23, 25, 26, 27 and 29 is shown in Table II.

[11] = system: Pseudomonas aeruginosa Strain No. L 1348; experiment: as above; assay type: cell-based; details: multi-resistant clinical isolate
Protocol: as §1, §2

[12] = system: Pseudomonas aeruginosa Strain No. L 1498; experiment: as above; assay type: cell-based; details: multi-resistant clinical isolate
Protocol: as §1, §2

[13] = system: Pseudomonas aeruginosa Strain No. L 1533; experiment: as above; assay type: cell-based; details: multi-resistant clinical isolate
Protocol: as §1, §2

Strep. pyogenes C 203 = experiment: In vivo test in mice septicemically infected with Strep. pyogenes C 203; details: Strep. pyogenes C 203 septicemia
Text: The ED50 values (mg/kg) of representative compounds of the invention in in vivo tests in mice septicemically infected with Strep. pyogenes. C 203, obtained according to the procedure described by V. Arioli et al. (Journal of Antibiotics 29, 511; 1976) are given in table III.

MIC Escherichia coli SKF 12140 [1] [microgram/ml]	MIC Proteus vulgaris X19H ATCC 881 [2] [microgram/ml]	MIC Pseudomonas aeruginosa ATCC 10145 [3] [microgram/ml]	MIC Staphylococcus aureus TOUR [4] [microgram/ml]	MIC Staphylococcus epidermidis ATCC 12228 [5] [microgram/ml]	MIC Streptococcus faecalis ATCC 7080 [7] [microgram/ml]	MIC Streptococcus pneumoniae UC 41 [8] [microgram/ml]	MIC Streptococcus pyogenes C 203 [9] [microgram/ml]	MIC Pseudomonas aeruginosa L 1138 [10] [microgram/ml]	MIC Pseudomonas aeruginosa L 1348 [11] [microgram/ml]	MIC Pseudomonas aeruginosa L 1498 [12] [microgram/ml]	MIC Pseudomonas aeruginosa L 1533 [13] [microgram/ml]	Structure (SMILES)	MIC Staphylococcus haemolyticus L 602 [6] [microgram/ml]	survivors/treated (E. coli; i.v. administration, 40 mg/kg)	ED50 s.c. (E. coli; s.c. administration) [mg/kg]	ED50 p.o. (Strep. pyogenes C 203; p.o.)	ED50 s.c. (Strep. pyogenes C 203; s.c.) [mg/kg]
2	64	8	0.06	0.06	0.12	0.12	0.06	64	4	64	64	NCCCNCCCCNCCCNC(=O)C1NC(=O)C2NC(=O)C(NC(=O)C3NC(=O)C4NC(=O)C(Cc5ccc(c(Cl)c5)Oc5cc3cc(c5O)Oc3ccc(cc3Cl)C2O)NC(=O)C(N)c2ccc(O)c(c2)Oc2cc(O)cc4c2)c2ccc(O)c(c2)-c2c(O)cc(O)cc21 (stereo not drawn) [Compound 27]	0.12				
1	32	8	0.06	0.03	0.12	0.12	0.12	64	4	64	64	NCCCNCCCNC(=O)C1NC(=O)C2NC(=O)C(NC(=O)C3NC(=O)C4NC(=O)C(Cc5ccc(c(Cl)c5)Oc5cc3cc(c5O)Oc3ccc(cc3Cl)C2O)NC(=O)C(N)c2ccc(O)c(c2)Oc2cc(O)cc4c2)c2ccc(O)c(c2)-c2c(O)cc(O)cc21 (stereo not drawn) [Compound 22]	0.12				
1	32	8	0.06	0.016	0.12	0.12	0.06	64	8	64	128	NCCN(CCN)CCNC(=O)C1NC(=O)C2NC(=O)C(NC(=O)C3NC(=O)C4NC(=O)C(Cc5ccc(c(Cl)c5)Oc5cc3cc(c5O)Oc3ccc(cc3Cl)C2O)NC(=O)C(N)c2ccc(O)c(c2)Oc2cc(O)cc4c2)c2ccc(O)c(c2)-c2c(O)cc(O)cc21 (stereo not drawn) [Compound 29]	0.06				
> 128	> 128	64	0.12	0.06	0.12	0.12	0.06					CC(=O)NC1C(OC2c3ccc(c(Cl)c3)Oc3cc4cc(c3OC3OC(CO)C(O)C(O)C3NC(=O)CCCCCCC(C)C)Oc3ccc(cc3Cl)CC3NC(=O)C(N)c5ccc(O)c(c5)Oc5cc(O)cc(c5)C(NC3=O)C(=O)NC4C(=O)NC3C(=O)NC2C(=O)NC(C(=O)NCCCNCCCNCCCN)c2cc(O)cc(OC4OC(CO)C(O)C(O)C4O)c2-c2cc3ccc2O)OC(CO)C(O)C1O (stereo not drawn) [Compound 9]	0.12			about 80 mg/kg	0.06
0.5	64	2	0.06	0.016	0.25	0.12	0.06	32	4	64	64	NCCCNCCCNCCCNC(=O)C1NC(=O)C2NC(=O)C(NC(=O)C3NC(=O)C4NC(=O)C(Cc5ccc(c(Cl)c5)Oc5cc3cc(c5O)Oc3ccc(cc3Cl)C2O)NC(=O)C(N)c2ccc(O)c(c2)Oc2cc(O)cc4c2)c2ccc(O)c(c2)-c2c(O)cc(O)cc21 (stereo not drawn) [Compound 26]	0.06				

Structure (SMILES)	MIC Escherichia coli SKF 12140 [1] [microgram/ml]	MIC Proteus vulgaris X19H ATCC 881 [2] [microgram/ml]	MIC Pseudomonas aeruginosa ATCC 10145 [3] [microgram/ml]	MIC Staphylococcus aureus TOUR [4] [microgram/ml]	MIC Staphylococcus epidermidis ATCC 12228 [5] [microgram/ml]	MIC Streptococcus faecalis ATCC 7080 [7] [microgram/ml]	MIC Streptococcus pneumoniae UC 41 [8] [microgram/ml]	MIC Streptococcus pyogenes C 203 [9] [microgram/ml]	MIC Pseudomonas aeruginosa L 1138 [10] [microgram/ml]	MIC Pseudomonas aeruginosa L 1348 [11] [microgram/ml]	MIC Pseudomonas aeruginosa L 1498 [12] [microgram/ml]	MIC Pseudomonas aeruginosa L 1533 [13] [microgram/ml]	MIC Staphylococcus haemolyticus L 602 [6] [microgram/ml]	survivors/treated (E. coli; i.v. administration, 40 mg/kg)	ED50 s.c. (E. coli; s.c. administration) [mg/kg]	ED50 p.o. (Strep. pyogenes C 203; p.o.)	ED50 s.c. (Strep. pyogenes C 203; s.c.) [mg/kg]
NCCCN(CCCN)CCCNC(=O)C1NC(=O)C2NC(=O)C(NC(=O)C3NC(=O)C4NC(=O)C(Cc5ccc(c(Cl)c5)Oc5cc3cc(c5O)Oc3ccc(cc3Cl)C2O)NC(=O)C(N)c2ccc(O)c(c2)Oc2cc(O)cc4c2)c2ccc(O)c(c2)-c2c(O)cc(O)cc21 (stereo not drawn) [Compound 50]	1	128	8	0.12	0.008	0.12	0.12	0.06					0.06	7/8	≤ 38		
NCCCNCCNCCCNC(=O)C1NC(=O)C2NC(=O)C(NC(=O)C3NC(=O)C4NC(=O)C(Cc5ccc(c(Cl)c5)Oc5cc3cc(c5O)Oc3ccc(cc3Cl)C2O)NC(=O)C(N)c2ccc(O)c(c2)Oc2cc(O)cc4c2)c2ccc(O)c(c2)-c2c(O)cc(O)cc21 (stereo not drawn) [Compound 25]	2	64	16	0.12	0.06	0.12	0.12	0.06	32	4	64	64	0.12				
